16 molecules from US8901116B2, “Method for treating pain, anxiety or depression using carbamoyloxy alkanoyl piperazine compound” (SK Biopharmaceuticals Co., Ltd., priority 2007, dated 2014) can be followed below.

What all share (format): in vivo
Experiment [1] relates to male ICR mouse. The experiment is described as follows: Acetic acid-induced writhing test in mouse. Particulars: po, p.o, acetic acid i.p. 1 hour after dosing, writhing counted for 10 minutes, read-out: Writhing Test Suppression of pain response. Here is the method: An acetic acid-induced writhing test is one of models for measuring an analgesic effect of drugs. A test material dissolved in a suitable vehicle was orally administered to a male ICR mouse weighing 30 to 35 g at an amount of 10 mg/kg. After 1 hour of the oral administration, […] of an aqueous 0.8% acetic acid solution was intraperitoneally injected into the male ICR mouse to induce the abdominal pain of the male ICR mouse. Right after the administration of acetic acid, the male ICR mouse was put into an empty cage, and the number of writhing behaviors of the mice was counted for 10 minutes. The term “writhing” represents a reflex action in which the mouse overtly extends its abdomen by stretching its hind legs due to the abdominal pain. The analgesic effect of the test material is represented by the ‘suppression of pain response’ {[(Writhing number of vehicle-administered group−Writhing number of Test material—administered group)/(Writhing number of Solvent-administered group)]×100%}.

Experiment [2] concerns male ICR mouse. The experiment in a line: Head twitch potentiation induced by 5-HTP (5-HTP potentiation test) in mouse. Particulars: po, 0.5 h, p.o, 5-HTP 80 mg/kg + Carbidopa 25 mg/kg i.p. 30 minutes after dosing, head twitches counted for 2 minutes, negative = 5-HT2A antagonist, read-out: 5-HTP Potentiation Increase rate in Head Twitch No. Here is the method:
When 5-hydroxy-L-tryptophan (5-HTP) is administered into a mouse, a head twitch phenomenon is observed since serotonin is increasingly secreted in the mouse. […] By using this principle, it is possible to search an effect of the representative antidepressant agent. A test material dissolved in a suitable vehicle was orally administered to a male ICR mouse weighing 20 to 25 g at an amount of 30 mg/kg. After 30 minutes of the oral administration, 5-HTP (80 mg/kg) and 5-HTP peripheral decarbozylase inhibitor ‘Carbidopa’ (25 mg/kg) were intraperitoneally administered to the mouse. After 30 minutes of the intraperitoneal administration, the mouse was put into an observation cage, and head twitches of the mouse were counted for 2 minutes. The anti-depression effect of the test material is represented by the ‘Increase rate in Head Twitch No.’ {[(Head Twitch No. of Test material-administered group−Head Twitch No. of vehicle-administered group)/(Head Twitch No. of vehicle-administered group)]×100%}. […] In addition to the selective serotonin reuptake inhibitor (SSRI) that has been widely used as an antidepressant agent in the clinical fields, it was tested that 5-HT2A antagonists such as nefazodone and trazodone also have an antidepressant effect.

The subject of experiment [3] is male ICR mouse. The experiment in a line: Elevated plus maze (EPM) test in mouse. Particulars: po, p.o, 1 hour after dosing, 5 minutes observation, read-out: Elevated Plus Maze Change index in Open-Arm Time. An excerpt: Elevated plus maze (EPM) is one of representative models that examine an anti-anxiety activity of a test material. Equipment used for an EPM test has a crossroad shape raised in a high position off the ground, and is configured in such a cliff shape that both sides of one road are protected with high walls and the other road is free from the wall. Among them, the road in the cliff shape is referred to as an ‘open arm,’ and the road protected by the walls is referred to as a ‘close arm.’ In this case, a level of the anxiety of a mouse may be measured by determining in which arm the mouse stays longer. In general, the mouse stays longer in the close arm than the open arm, but a mouse treated with a medicine showing an anti-anxiety effect stays relatively longer in the open arm. A test material dissolved in a suitable vehicle was orally administered to a male ICR mouse weighing 20 to 25 g at an amount of 10 mg/kg. After 1 hour of the oral administration, the mouse was put on the center of an EPM equipment to measure how long the mouse stays in the open arm within a time range of 5 minutes. The anti-anxiety effect of the test material is represented by the ‘Change index in Open-Arm Time’ {[(open arm duration in test material-administered group−open arm duration in vehicle-administered group)/(open arm duration in vehicle administered group)]×100%}.

Experiment [4] deals with male ICR mouse. The experiment in a line: Hot plate test in mouse. Particulars: po, p.o, 1 hour after dosing, hot plate 55° C., read-out: Hot Plate Test Increase in latency of avoidance response. On the procedure: A hot plate test is one of representative models for measuring an analgesic effect of drugs. A test material dissolved in a suitable vehicle was orally administered to a male ICR mouse weighing 25 to 30 g at an amount of 30 mg/kg. After 1 hour of the oral administration, the mouse was put on a hot plate (55° C.). A latency was recorded from the time right after a mouse is put on a hot plate to the time when avoidance responses (flinching, licking, jumping, etc.) to pain are observed from forefeet or rear legs of the mouse. The analgesic effect of the test material is represented by the ‘Increase in latency of avoidance response’ {[(Latency of avoidance response to pain of Test material-administered group−Latency of avoidance response to pain of vehicle-administered group)/(Latency of avoidance response to pain of Solvent-administered group)]×100%}.

Consider `NC(=O)O[C@H](CC(=O)N1CCN(c2ccc(F)cc2F)CC1)c1ccccc1` [Example 82, (R)-carbamic acid 3-[4-(2,4-difluoro)-phenylpiperazin-1-yl]-3-oxo-1-phenyl-propyl ester], for which, in the experiment with male ICR mouse [1], the inhibition in vivo at 10 mg/kg is 34.5%. Moreover, the results for the change in vivo at 30 mg/kg with male ICR mouse [2] and in the experiment on male ICR mouse [4] were -20% and 65.7%, respectively. Besides, the change in vivo at 10 mg/kg in the experiment with male ICR mouse [3] was 62.6%.
The matching figures for `NC(=O)OC(CC(=O)N1CCN(c2ccccc2)CC1)c1cc(F)ccc1F` (stereo not shown) [Example 57, carbamic acid 1-(2,5-difluoro-phenyl)-3-oxo-3-(4-phenyl-piperazin-1-yl)-propyl ester]: 34.5%, 27.9%, 11.2% and 88.8%.
With `CC(=O)Oc1ccc(N2CCN(C(=O)CC(OC(N)=O)c3ccccc3)CC2)cc1` (stereo not shown) [Example 23, acetic acid 4-[4-(3-carbamoyloxy-3-phenyl-propionyl)-piperazin-1-yl]-phenyl ester], the inhibition in vivo at 10 mg/kg in the experiment with male ICR mouse [1] turned out to be 21.1%. Moreover, the values for the change in vivo at 30 mg/kg in the experiment with male ICR mouse [2] and in the experiment with male ICR mouse [4] were 100% and 29.4%, respectively. Further, in the experiment on male ICR mouse [3], the change in vivo at 10 mg/kg was -25.1%.
Take `NC(=O)OC(c1ccccc1)C(F)(F)C(=O)N1CCN(c2ccccc2)CC1` (stereo not shown) [Example 47, carbamic acid 2,2-difluoro-3-oxo-1-phenyl-3-(4-phenyl-piperazin-1-yl)-propyl ester]: the inhibition in vivo at 10 mg/kg in the experiment on male ICR mouse [1] came out at 28.8%. The results for the change in vivo at 30 mg/kg in the experiment with male ICR mouse [2] and in the experiment with male ICR mouse [4] were 22.5% and 27.2%, respectively. In the experiment with male ICR mouse [3], the change in vivo at 10 mg/kg amounted to 21.4%.
In the same order, the values of `NC(=O)O[C@H](CC(=O)N1CCN(c2ccc(F)cc2)CC1)c1ccccc1` [Example 62, (R)-carbamic acid 3-[4-(4-fluoro-phenyl)-piperazin-1-yl]-3-oxo-1-phenyl-propyl ester] are 66.7%, 0.8%, 13.8% and 2.7%.
`NC(=O)OC(CC(=O)N1CCN(c2ccc(O)cc2)CC1)c1ccccc1` (stereo not shown) [Example 18, carbamic acid 3-[4-(4-hydroxy-phenyl)-piperazin-1-yl]-3-oxo-1-phenyl-propyl ester]: the inhibition in vivo at 10 mg/kg with male ICR mouse [1] was determined as 30.6%. The change in vivo at 30 mg/kg was -23.4% in the experiment with male ICR mouse [2] and 26.4% in the experiment on male ICR mouse [4]. For the same molecule, the change in vivo at 10 mg/kg in the experiment with male ICR mouse [3] worked out at 16.1%.
The matching figures for `NC(=O)OC(CC(=O)N1CCN(c2ccccc2)CC1)c1ccc(F)c(F)c1` (stereo not shown) [Example 60, carbamic acid 1-(3,4-difluoro-phenyl)-3-oxo-3-(4-phenyl-piperazin-1-yl)-propyl ester]: 28%, -23.5%, 17.2% and 21.3%.
On to `NC(=O)O[C@H](CC(=O)N1CCN(c2ccc(Cl)cc2)CC1)c1ccccc1` [Example 61, (R)-carbamic acid 3-[4-(4-chloro-phenyl)-piperazin-1-yl]-3-oxo-1-phenyl-propyl ester], for which, in the experiment on male ICR mouse [1], the inhibition in vivo at 10 mg/kg came to 24.1%. Moreover, the change in vivo at 30 mg/kg in the experiment with male ICR mouse [2] turned out to be 27.3%; with male ICR mouse [4] it was 38.8%. For the same molecule, the change in vivo at 10 mg/kg with male ICR mouse [3] was -27.4%.
For the molecule `NC(=O)OC(CC(=O)N1CCN(c2ccccc2)CC1)c1ccc(Cl)c(Cl)c1` (stereo not shown) [Example 53, carbamic acid 1-(3,4-dichloro-phenyl)-3-oxo-3-(4-phenyl-piperazin-1-yl)-propyl ester], the inhibition in vivo at 10 mg/kg in the experiment on male ICR mouse [1] was 28.5%. For the same molecule, the change in vivo at 30 mg/kg with male ICR mouse [2] was found to be 50%; with male ICR mouse [4], 10.6%. Moreover, in the experiment on male ICR mouse [3], the change in vivo at 10 mg/kg was -17.7%.
In the same order, the values of `NC(=O)OC(CC(=O)N1CCN(c2ccccc2)CC1)c1ccc(Cl)cc1` (stereo not shown) [Example 16, carbamic acid 1-(4-chloro-phenyl)-3-oxo-3-(4-phenyl-piperazin-1-yl)-propyl ester] are 37.3%, 140%, 19.5% and 1.3%.
The matching figures for `COc1ccc(N2CCN(C(=O)CC(OC(=O)N(C)C)c3ccccc3)CC2)cc1` (stereo not shown) [Example 19, dimethyl-carbamic acid 3-[4-(4-methoxy-phenyl)-piperazin-1-yl]-3-oxo-1-phenyl-propyl ester]: 34.2%, 60%, 49.4% and 0%.
In the same order, the values of `NC(=O)O[C@H](CC(=O)N1CCN(c2ccc(Cl)c(Cl)c2)CC1)c1ccccc1` [Example 68, (R)-carbamic acid 3-[4-(3,4-dichloro-phenyl)-piperazin-1-yl]-3-oxo-1-phenyl-propyl ester] are 51%, -28.6%, 15.7% and 1.5%.
Take `CCOc1ccc(N2CCN(C(=O)C[C@@H](OC(N)=O)c3ccccc3)CC2)cc1` [Example 63, (R)-carbamic acid 3-[4-(4-ethoxy-phenyl)-piperazin-1-yl]-3-oxo-1-phenyl-propyl ester]: the inhibition in vivo at 10 mg/kg with male ICR mouse [1] was determined as 59.8%. Besides, the values for the change in vivo at 30 mg/kg in the experiment on male ICR mouse [2] and in the experiment with male ICR mouse [4] were 19.5% and 15.2%, respectively. For the same molecule, the change in vivo at 10 mg/kg with male ICR mouse [3] was 25%.
In the same order, the values of `NC(=O)OC(CC(=O)N1CCN(c2ccccc2)CC1)c1ccc(Cl)cc1Cl` (stereo not shown) [Example 56, carbamic acid 1-(2,4-dichloro-phenyl)-3-oxo-3-(4-phenyl-piperazin-1-yl)-propyl ester] are 23.3%, 40%, 11.8% and 23.9%.
In the case of `NC(=O)O[C@H](CC(=O)N1CCN(c2ccc(O)cc2)CC1)c1ccccc1` [Example 83, (R)-carbamic acid 3-[4-(4-hydroxy)-phenylpiperazin-1-yl]-3-oxo-1-phenyl-propyl ester], the inhibition in vivo at 10 mg/kg in the experiment with male ICR mouse [1] stood at 44.5%. The change in vivo at 30 mg/kg in the experiment on male ICR mouse [2] worked out at 40.9%; in the experiment on male ICR mouse [4], 89.3%. The change in vivo at 10 mg/kg in the experiment with male ICR mouse [3] turned out to be 52.7%.
With `NC(=O)OC(CCC(=O)N1CCN(c2ccc(Cl)c(Cl)c2)CC1)c1ccccc1` (stereo not shown) [Example 40, carbamic acid 4-[4-(3,4-dichloro-phenyl)-piperazin-1-yl]-4-oxo-1-phenyl-butyl ester], the inhibition in vivo at 10 mg/kg with male ICR mouse [1] turned out to be 11.1%. Moreover, the change in vivo at 30 mg/kg with male ICR mouse [2] stood at 311%; in the experiment on male ICR mouse [4] it was 27.8%. In addition, in the experiment with male ICR mouse [3], the change in vivo at 10 mg/kg turned out to be 68.8%.
